Assay results published in patent publication US20220387472A1, “COMPOSITIONS AND METHODS FOR TREATING CANCER” (AIM ImmunoTech Inc., priority 2020, published 2022).
“And” between values parts separate entries of the source, which are not always exact repeats. Equal entries are not always repeated. Where two headings read alike, the source gives them in different places.

Assays:
[1] = tested on: Pancreatic Adenocarcinoma; conditions: cited from earlier work
[2] = Maximum tolerated dose (MTD) in NHP; assay type: in vivo; conditions: NHP (Cynomolgus monkey)
Procedure: (§1) Ampligen® has undergone extensive preclinical safety testing including 18 animal (mice, rat, rabbit, dog, and monkey) toxicity studies; 6 animal (rat and rabbit) reproductive studies, and 2 animal (rat, monkey) PK/PD studies. The MTD for humans and NHPs is >10 mg/kg and >36 mg/kg, respectively.

[3] = cynomolgus monkey, in vivo, 6 mg/kg
Procedure: as §1

[4] = parameters: species or system Humans; conditions: human, in vivo, 6 mg/kg
Procedure: as §1

[5] = Clinical safety and tolerability of tdsRNA (rintatolimod); assay type: in vivo, human; conditions: for Tolerability: twice weekly infusions
Source text: tdsRNA (e.g., Rintatolimod) has undergone extensive clinical and preclinical testing. […] Favorable safety profiles have been seen for intraperitoneal, intravenous, and intranasal routes of administration of tdsRNA.
Our analysis and previous studies have shown that […]® has a very good safety profile. […]® lacks the potent toxicities seen with most chemotherapeutic agents. See, e.g., […]®'s safety profile in other parts of this disclosure. […] Thus, we believe the ideal use of […]® would be to continue therapy beyond 18 weeks until time of tumor progression. We believe this approach could add an additional 4 to 6 months or more to the overall survival (OS) benefit.

[6] = Maximum tolerated dose (MTD) in humans; assay type: in vivo
Procedure: as §1

[7] = tested on: metastatic or locally advanced pancreatic carcinoma; test: Survival of pancreatic cancer patients given […] following FOLFIRINOX vs matched historical control group; assay type: in vivo, human; conditions: n = 27 per group, from start of FOLFIRINOX, control: FOLFIRINOX only (historical); for Median Overall Survival: AMPLIGEN i.v. 200 mg twice weekly for 2 weeks, then 400 mg twice weekly, 18 weeks total, following FOLFIRINOX
Procedure: In this case, the tdsRNA used is rintatolimod ([…]®) which is a form of tdsRNA. Included in the study were adults with metastatic or locally advanced pancreatic carcinoma following FOLFIRINOX treatment. The tdsRNA treatment was rintatolimod ([…]®) administered i.v. 200 mg twice weekly for 2 weeks, then 400 mg twice weekly for a total treatment duration of 18 weeks.
The experiment compared survival in the experimental […]® cohort (n=27) compared to a historical control group (n=27) matched for age, gender, disease stage and number of cycles of FOLFIRINOX.
To be selected for the study, the patient should be over 18 years in age and diagnosed with locally advanced pancreatic cancer (LAPC) or metastasized pancreatic cancer. These LACP patients were not candidates for surgical resection. The patient should have completed the standard of care (e.g., A FOLFIRINOX regimen) and the patient should have no progressive disease (as detected by computed tomography (CT) 6 weeks after treatment). Patients with second malignancy (simultaneous), on immunosuppressive medication, or having liver-renal insufficiency were excluded.
Survival analysis was performed as follows. A group of 136 patients was assembled from a retrospective database, including all patients who received FOLFIRINOX between 2012-2018. Variables that were matched include age (+ or −10 years); gender; disease stage (locally advanced pancreatic cancer (LAPC), metastasized, metastasized after resection); and the number of FOLFIRINOX cycles to obtain a historical control group that was well-matched to the experimental group. The outcomes were determined from the start of FOLFIRINOX, and the overall survival and progression-free survival were calculated.

[8] = clinical trials enrolling over 1,200 patients, over 100,000 doses

Question: With O=C(c1cc(Cc2n[nH]c(=O)c3ccccc23)ccc1F)N1CCN(C(=O)C2CC2)CC1 [Lynparza] as the molecule, how does the OS Over Control ([1]; Second-Line Therapy, median OS over the control arm) read?
Answer: 3.6 months

Question: With Nc1ccn([C@@H]2O[C@H](CO)[C@@H](O)C2(F)F)c(=O)n1 [gemcitabine] as the molecule, how does the “OS Months” value ([1]; First-Line Therapy, median overall survival) read?
Answer: 6.7 Months and 6.0 Months and 6.8 Months

Question: Which MTD ([2]; based on 4 weeks) does the source give for rIn.r(C12U)n here?
Answer: 100 mg/kg

Question: What about the MTD ([2]; based on 24 weeks) of the same molecule?
Answer: > 36 mg/kg

Question: And the Half-Life [3]?
Answer: 22.9 min

Question: What about the Half-Life [4] of the same molecule?
Answer: 36.5 min

Question: What about the Drug-related deaths [5, 8] of the same molecule?
Answer: no drug-related deaths

Question: What about the Tolerability [5, 8] of the same molecule?
Answer: generally well-tolerated

Question: What about the Tolerability ([5]; clinical trials enrolling over 1,200 patients, over 100,000 doses, listed as Ampligen) of the same molecule?
Answer: generally well-tolerated

Question: And the Tolerability ([5]; clinical trials enrolling over 1,200 patients, over 100,000 doses, listed as Rintatolimod)?
Answer: well-tolerated

Question: And the Cumulative toxicities ([5]; human, in vivo)?
Answer: no evidence of any cumulative toxicities

Question: What about the “Serious adverse events compared to placebo” value ([5]; two placebo-controlled, randomized studies) of the same molecule?
Answer: no increase in serious adverse events compared to placebo

Question: And the MTD ([6]; based on 1200 mg BIW (cancer))?
Answer: 17 mg/kg

Question: And the MTD ([6]; based on randomized, well-controlled 24 week study in HIV disease)?
Answer: > 10 mg/kg

Question: What about the “Median Progression-free Survival” value ([7]; AMPLIGEN following FOLFIRINOX) of the same molecule?
Answer: 12.0 months

Question: What about the “Median Overall Survival” value [7] of the same molecule?
Answer: 19.0 months and 19 months

Question: What about the “Median Overall Survival” value ([7]; listed as Ampligen) of the same molecule?
Answer: 19 months
